Experimental data published in the METLIN SMRT retention time set (Domingo-Almenara et al. 2019).

Test: gradient 5% acetonitrile 3 min, to 50% in 2 min, to 85% in 15 min, held 3 min, 100 µL/min
Conditions: column: Zorbax Extend-C18 2.1 x 50 mm; eluents: water / acetonitrile, 0.1% formic acid
Method in brief: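 Data were gathered over 3 months by HPLC coupled to a quadrupole time-of-flight mass spectrometer, operated in positive and negative ionization mode. Mixtures of ~100 pure standards ran on a Zorbax Extend-C18 column (2.1 × 50 mm, 1.8 μm) at 100 μL/min, with water and acetonitrile each containing 0.1% formic acid and dead and dwell volumes of 40 μL and 900 μL. Retention time was read from adduct peaks picked by computer and checked manually.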

| RP-LC retention time | SMILES |
| --- | --- |
| 650 s | Fc1ccc(-c2noc(Cn3ccnc3)n2)cc1Br |
| 610 s | O=C(c1ccc2c(c1)OCO2)N1CC(c2noc(C3CCCN3CC3CC3)n2)C1 (stereo unspecified) |
| 657 s | O=C(c1csc(N2CCCC2)n1)N1CCCC1 |
| 710 s | Cc1ccc(C)c(C(=O)N2C[C@@H](F)C[C@H]2C(=O)N2CCCCC2)c1 |
| 773 s | O=C(NC1CCN(c2ccccc2)C1=O)c1ccc(Br)o1 (stereo unspecified) |
| 866 s | Cc1ccc(NC(=O)C2CCCN(S(=O)(=O)c3c[nH]c(C(=O)N4CCCC4)c3)C2)cc1C (stereo unspecified) |
| 595 s | CCc1noc2ncnc(NCCN(C)Cc3ccccc3)c12 |
| 896 s | Cc1oc(-c2ccc(NC(=O)CC3CCCC3)cc2)nc1Cn1cccn1 |
| 759 s | CCn1ccc(C(=O)N2CCCN(C3=NS(=O)(=O)C(c4ccc(F)cc4)=C3C)CC2)n1 |
| 1010 s | Cc1cc(C)c(S(=O)(=O)N2CCC(C)(C(=O)NCc3ccc4c(c3)OCO4)CC2)cc1C |
| 729 s | CCn1cc(S(=O)(=O)N2CCC3(CC2)CN(Cc2ccc(OC)cc2)C3=O)cn1 |
| 963 s | CCC(C)(C)NC(=O)CN1C(=O)CCCc2cc(S(=O)(=O)N3CCC(C)CC3)ccc21 |
| 1110 s | O=C(NCc1ccc(Br)cc1)C1CCCN(c2nccnc2Sc2ccccc2)C1 (stereo unspecified) |
| 712 s | O=C(Cn1c(=O)oc2ccccc21)N1CCC(c2noc(-c3ccncc3)n2)C1 (stereo unspecified) |
| 919 s | CCCCSc1ncnc2[nH]ncc12 |
| 970 s | CCCCn1nc2ccc(S(=O)(=O)N3CCC(C)CC3)cn2c1=O |
| 790 s | CCn1ccc(C(=O)Nc2ccc3c(c2)Sc2ncccc2C(=O)N3C(C)C)n1 |
| 964 s | Cc1ccc(NC(=O)Nc2cccn3nc(C(C)C)nc23)cc1 |
| 557 s | COCCN(Cc1ccncc1)C(=O)c1ccccc1SC |
| 802 s | Cc1ccc(-c2nnc(SCC(=O)Nc3cc(C)ccc3C)o2)cc1 |
| 794 s | Cc1cc(C)cc(NC(=O)C2CCN(Cc3cnn(-c4ccccc4)c3-n3cccc3)CC2)c1 |
| 759 s | O=C(Nc1ccc(Cl)cc1)C1CCc2sc(C(=O)N3CCOCC3)cc2C1 (stereo unspecified) |
| 638 s | O=C(CCc1cc2ccccc2[nH]c1=O)N1CCN(C(=O)c2ccco2)CC1 |

| RP-LC retention time | SMILES |
| --- | --- |
| 873 s | CCCn1cnc2ccc(-c3noc(-c4cccc(F)c4)n3)cc21 |
| 896 s | COCc1nc(-c2ccc(OC3CCN(C(=O)C4(c5ccc(OC)cc5)CC4)C3)cc2)no1 (stereo unspecified) |
| 618 s | CCC(C(=O)NCCN(C)C)n1c2ccccc2c2cnn(C)c(=O)c21 (stereo unspecified) |
| 788 s | O=C(COc1ccccc1)N1CCc2[nH]nc(-c3ccccc3)c2C1 |
| 869 s | CCCn1cc(S(=O)(=O)Nc2ccccc2F)c2cccnc21 |
| 586 s | COc1cccc(C(=O)N2CCN(c3ccc(-c4ccccn4)nn3)CC2)c1OC |
| 908 s | Cc1ccc(CNC(=O)Cn2nc(N3CCCC3)c3ccccc3c2=O)cc1 |
| 744 s | CCc1ccccc1NC(=O)Cn1nc(N2CCOCC2)c2ccccc2c1=O |
| 1180 s | CC(C)Cc1nc(-c2ccccc2)oc1CC(=O)Nc1ccc(F)cc1Cl |
| 922 s | CCOc1ccc(S(=O)(=O)N2CCC(C(=O)NC3CCCCC3)CC2)cc1 |
| 966 s | COc1ccccc1-c1nnc(-c2ccc(C)c(S(=O)(=O)N3CCCC3)c2)o1 |
| 686 s | CCCCC(=O)N(C)CC1CCOCC1 |
| 1000 s | CSc1ccccc1NC(=O)CCCn1cccc1 |
| 719 s | O=C(CC1=C2CCCCC2NC1=O)Nc1cccc(F)c1 (stereo unspecified) |
| 1030 s | O=C(Nc1cc(-c2ccsc2)no1)c1ccc(Cl)s1 |
| 668 s | CN1C(=O)Cc2ccccc2C1C(=O)NCc1ccco1 (stereo unspecified) |
| 667 s | Cc1[nH]c2ccc(-c3nnc(SCC(=O)NC(C)c4nc5ccccc5[nH]4)o3)cc2c1C (stereo unspecified) |
| 875 s | CC(C)NC(=O)c1ccc(OCC2CCN(C(=O)CC(C)(C)C)CC2)cc1 |
| 600 s | CCc1cc(=O)n(CC(=O)Nc2cccc(C)c2)c(N)n1 |
| 582 s | CN1CCN(c2c3c(nc4nc(-c5ccccc5)nn24)CCCC3)CC1 |
| 912 s | CCC(NC(=O)c1nnc(-c2ccc(S(=O)(=O)N(C)C)cc2)o1)c1cccs1 (stereo unspecified) |
| 724 s | COCC(=O)Nc1cnc(-c2ccc(OC)cc2)nc1 |
| 918 s | Cc1ccsc1C(=O)Nc1cnn(-c2ncncc2N2CCC(C)CC2)c1 |

| RP-LC retention time | SMILES |
| --- | --- |
| 792 s | CCSCCOC(=O)C1=C(C)NC(=O)NC1c1cccc(OC)c1OC (stereo unspecified) |
| 738 s | CCn1c(C(=O)NC(C)CCc2ccco2)cc2sc(Cl)cc21 (stereo unspecified) |
| 692 s | O=C([C@@H]1C[C@H](F)CN1S(=O)(=O)Cc1ccccc1)N1CCOCC1 |
| 849 s | CCn1ncn2cc(S(=O)(=O)Nc3cccc(C)c3)cc2c1=O |
| 915 s | COc1ccc(N2C(=O)C3N=NN(Cc4nc(-c5ccc(C)cc5)no4)C3C2=O)cc1OC (stereo unspecified) |
| 702 s | Fc1ccccc1-c1nc(-c2ccnc(N3CCCC3)c2)no1 |
| 733 s | CCc1ccccc1N1C(=O)c2c(C(=O)OC)ncn2CC1(C)C(=O)NC1CCCC1 (stereo unspecified) |
| 812 s | O=C(Nc1ccccc1)C(=O)c1ccc[nH]1 |
| 799 s | O=C(c1c(F)cccc1F)N1CCN(S(=O)(=O)c2cc3c4c(c2)CCC(=O)N4CCC3)CC1 |
| 952 s | COc1ccccc1-c1nc(-c2ccc(S(=O)(=O)N3CCC(C(=O)N4CCCC4)CC3)cc2)no1 |
| 994 s | COC(=O)c1cccc(Nc2c(-c3ccc(C)cc3)nc3cnc(Br)cn23)c1 |
| 1010 s | CC(C)Cn1cc(S(=O)(=O)Nc2ccc(F)cc2Cl)c2cccnc21 |
| 712 s | CCNC(=O)c1sc2nc(-c3ccccc3)c(NCCOC)n2c1C |
| 740 s | O=C(c1nc(-c2cnccn2)no1)N1CCc2ccccc21 |
| 601 s | Cc1nn(-c2ccccc2)c2c1nc(CCC(=O)N1CCN(c3ccccn3)CC1)c(=O)n2C |
| 630 s | COc1ccc(-c2nnc(-c3ccc(-n4ccnc4)nc3)o2)c(OC)c1 |
| 718 s | CC(C)NC(=O)c1cnn2c(-c3ccccn3)ccnc12 |
| 692 s | O=C(NC1CCCC1)c1cc(C2CC2)[nH]n1 |
| 652 s | COc1ccc(S(=O)(=O)N2CCC(C(=O)N[C@@H](C)C(=O)O)CC2)cc1 |
| 1110 s | Cc1noc(-c2cccn2Cc2ccccc2Cl)n1 |
| 917 s | CCN1C(=O)c2cc(C(=O)Nc3cc(C)cc(C)c3)nn2CC1(C)C(=O)NC1CCCC1 (stereo unspecified) |
| 1090 s | COc1ccc(C2(C(=O)N3CCC4(CC3)C(OC)CN4c3cccc(F)c3)CC2)cc1 (stereo unspecified) |
| 773 s | CN1C(=O)c2cccnc2Sc2cc(C(=O)NC3CCCCC3)ccc21 |

| RP-LC retention time | SMILES |
| --- | --- |
| 602 s | CN(CC(=O)N1CCN(C2CCCCC2)CC1)S(=O)(=O)c1ccc2c(c1)CCCC(=O)N2 |
| 687 s | COc1ccc(OC)c(CNC(=O)Cc2nnc(-c3ccccn3)o2)c1 |
| 626 s | CCN1CCN(CCNC(=O)C2CCCN(S(=O)(=O)c3ccc4c(ccn4CC)c3)C2)CC1 (stereo unspecified) |
| 1010 s | Cc1ccc(CNC(=O)C2CCN(S(=O)(=O)c3cc(-c4noc(C5CC5)n4)sc3C)CC2)o1 |
| 784 s | COc1ccc(C(=O)Nc2cc(-c3ccccn3)no2)cc1 |
| 1060 s | CCOc1ccc(NC(=O)c2cn(C)nc2S(=O)(=O)N2CCC(C)CC2)cc1 |
| 627 s | CC(C(=O)N1CCC(N2CCCCC2)CC1)C1CCN(S(=O)(=O)c2cccs2)CC1 (stereo unspecified) |
| 693 s | Cc1noc(-c2ccnc(-n3ncc(C(=O)N4CCOCC4)c3C)c2)n1 |
| 1000 s | COc1ccc(-c2noc(-c3nnn(Cc4nc(-c5ccccc5OC)oc4C)c3C)n2)cc1OC |
| 1080 s | CC(C)C(=O)Nc1ccc(C2(C(=O)N(C)Cc3ccccc3)CCCCC2)cc1 |
| 901 s | CCN1C(=O)CCc2c(C)nc(-c3ccc(OC)cc3)nc21 |
| 602 s | O=C(N[C@H]1C[C@@H]2C[C@H]1N(C(=O)c1ccccc1Cl)C2)c1cccnc1 |
| 579 s | CC1CCCN(CCCNC(=O)c2ccc3c(c2)NC(=O)C2CCCN32)C1 (stereo unspecified) |
| 829 s | O=C(Cn1c(=O)c2cc(-c3cccs3)nn2c2ncccc21)NCCc1ccccc1 |
| 855 s | Cc1cc(-c2nn3c(COc4ccccc4)nnc3s2)no1 |
| 934 s | Cc1ccc(C)c(NC(=O)N(C)CCc2noc(COc3ccccc3)n2)c1 |
| 889 s | CC(C)Cc1cc(-c2nnc3sc(-c4ccccc4F)nn23)n[nH]1 |
| 798 s | Cn1cc(-c2cc3n(n2)CCC(=O)N3CC(=O)NCc2ccccc2)c2ccccc21 |
| 589 s | COc1ccc(C2C(C(=O)NCCN(C)C)c3cc(OC)c(OC)cc3C(=O)N2C)cc1OC (stereo unspecified) |
| 1150 s | O=C(Cn1cccc1-c1nc(-c2ccc3c(c2)OCO3)no1)NCCC1=CCCCC1 |
| 882 s | CCCC(CCC)C(=O)NCc1nnnn1-c1ccc(OCC)cc1 |

| SMILES | RP-LC retention time |
| --- | --- |
| O=C(N[C@@H](COc1ccc2[nH]c(=O)[nH]c2c1)c1ccccc1)c1cccn(Cc2ccc(F)c(F)c2)c1=O | 893 s |
